Results reported in the supplement of paper PMC10307832.

How the values were obtained:
Assay in all cases: relative viability (nuclei count vs DMSO), 5 days (fraction); higher = more cells survive
Quizartinib + Pictilisib = compound: CC(C)(C)c1cc(NC(=O)Nc2ccc(-c3cn4c(n3)sc3cc(OCCN5CCOCC5)ccc34)cc2)no1 [Quizartinib] + CS(=O)(=O)N1CCN(Cc2cc3nc(-c4cccc5[nH]ncc45)nc(N4CCOCC4)c3s2)CC1 [Pictilisib] (partner 1 µM)
How it was run: (§1)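 Cells from lung cancer lines were seeded into 1536-well plates and, one day later, dosed by pin tool. Treatments were either a single drug or a fixed dose of an anchor drug with five library-drug doses (not always all listed) in √10 steps. After 5 days, nuclei were stained in a one-step fixation (final 0.05% Triton X-100, 1% formaldehyde, 1 ug/ml Hoechst) and counted on 4× images, and relative viability is the treated-to-vehicle nuclei ratio, as the median of duplicate plates.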

Quizartinib + Decitabine = compound: CC(C)(C)c1cc(NC(=O)Nc2ccc(-c3cn4c(n3)sc3cc(OCCN5CCOCC5)ccc34)cc2)no1 [Quizartinib] + Nc1ncn([C@H]2C[C@H](O)[C@@H](CO)O2)c(=O)n1 [Decitabine] (partner 2 µM)
How it was run: as §1

YM155 + Trametinib = compound: COCC[n+]1c2c(n(Cc3cnccn3)c1C)C(=O)c1ccccc1C2=O [YM155] + CC(=O)Nc1cccc(-n2c(=O)n(C3CC3)c(=O)c3c(Nc4ccc(I)cc4F)n(C)c(=O)c(C)c32)c1 [Trametinib] (partner 0.02 µM)
How it was run: as §1

YM155 + AZD7762 = compound: COCC[n+]1c2c(n(Cc3cnccn3)c1C)C(=O)c1ccccc1C2=O [YM155] + NC(=O)Nc1cc(-c2cccc(F)c2)sc1C(=O)N[C@H]1CCCNC1 [AZD7762] (partner 0.2 µM)
How it was run: as §1

| Cell Line | relative viability (Quizartinib + Pictilisib; first compound 0.001 µM) | relative viability (Quizartinib + Pictilisib; first compound 0.003162 µM) | relative viability (Quizartinib + Pictilisib; first compound 0.01 µM) | relative viability (Quizartinib + Pictilisib; first compound 0.03162 µM) | relative viability (Quizartinib + Pictilisib; first compound 0.1 µM) | relative viability (Quizartinib + Decitabine; first compound 0.001 µM) | relative viability (Quizartinib + Decitabine; first compound 0.003162 µM) | relative viability (Quizartinib + Decitabine; first compound 0.01 µM) | relative viability (Quizartinib + Decitabine; first compound 0.03162 µM) | relative viability (Quizartinib + Decitabine; first compound 0.1 µM) | relative viability (YM155 + Trametinib; first compound 0.002 µM) | relative viability (YM155 + Trametinib; first compound 0.006325 µM) | relative viability (YM155 + Trametinib; first compound 0.02 µM) | relative viability (YM155 + Trametinib; first compound 0.06325 µM) | relative viability (YM155 + AZD7762; first compound 0.002 µM) | relative viability (YM155 + AZD7762; first compound 0.006325 µM) | relative viability (YM155 + AZD7762; first compound 0.02 µM) | relative viability (YM155 + AZD7762; first compound 0.06325 µM) |
| --- | --- | --- | --- | --- | --- | --- | --- | --- | --- | --- | --- | --- | --- | --- | --- | --- | --- | --- |
| NCI-H322M | 0.523 | 0.545 | 0.509 | 0.533 | 0.537 | 0.685 | 0.653 | 0.681 | 0.72 | 0.763 | 0.55 | 0.5 | 0.48 | 0.536 | 0.53 | 0.579 | 0.593 | 0.572 |
| NCI-H1975 | 0.288 | 0.282 | 0.283 | 0.284 | 0.281 | 0.361 | 0.368 | 0.632 | 0.379 | 0.358 | 0.291 | 0.299 | 0.406 | 0.236 | 0.726 | 0.734 | 0.701 | 0.439 |
| NCI-H23 | – | 0.464 | 0.49 | 0.568 | 0.441 | 0.267 | 0.266 | 0.33 | 0.278 | 0.317 | – | 0.361 | 0.498 | 0.225 | – | 0.292 | 0.308 | 0.239 |
| ChaGo-K-1 | 0.49 | 0.905 | 0.669 | – | 1.01 | – | 0.521 | 0.589 | 0.532 | 0.596 | 0.832 | 0.929 | 0.865 | 0.913 | 0.847 | 0.822 | 0.915 | 0.821 |
| NCI-H441 | 0.38 | 0.508 | 0.508 | 0.379 | 0.606 | 0.236 | 0.247 | 0.213 | 0.238 | 0.278 | 0.383 | 0.393 | 0.461 | 0.268 | 0.947 | 1.23 | 1.09 | 0.246 |
